Measurements: US20070128217A1 (priority 2003, published 2007)

Experiments:
[1] = system: antibodies in sera from SARS patients (sera 1a, 1b, 2, 6, 37, 62, London, SARS-yellow, SARS-green); format: binding, human; parameters: Binding of serum 6 to linear peptides of protein X1 of SARS-CoV Urbani / Binding of serum 37 to linear peptides of protein X1 of SARS-CoV Urbani / Binding of serum 6 to looped/cyclic peptide (PEPSCAN-ELISA) / Binding of serum 37 to looped/cyclic peptide (PEPSCAN-ELISA) / Binding of serum 37 to looped/cyclic peptides of protein X1 of SARS-CoV Urbani / Binding of serum 6 to linear peptides of protein X2 / Binding of serum 37 to linear peptides of protein X2 / Binding of serum 37 to looped/cyclic peptides of protein X2 of SARS-CoV Urbani / Binding of serum 6 to linear peptides of protein M of SARS-CoV Urbani / Binding of serum 37 to linear peptides of protein M of SARS-CoV Urbani / Binding of serum 6 to looped/cyclic peptides of protein M of SARS-CoV Urbani / Binding of serum 37 to looped/cyclic peptides of protein M of SARS-CoV Urbani / Binding of serum 6 to linear peptides of protein X3 of SARS-CoV Urbani / Binding of serum 37 to linear peptides of protein X3 of SARS-CoV Urbani / Binding of serum 37 to looped/cyclic peptides of protein X3 of SARS-CoV Urbani / Binding of serum 6 to linear peptides of protein X4 of SARS-CoV Urbani / Binding of serum 37 to linear peptides of protein X4 of SARS-CoV Urbani / Binding of serum 37 to looped/cyclic peptides of protein X4 of SARS-CoV Urbani / Binding of serum 6 to linear peptides of protein X5 of SARS-CoV Urbani / Binding of serum 37 to linear peptides of protein X5 of SARS-CoV Urbani / Binding of serum 37 to looped/cyclic peptides of protein X5 of SARS-CoV Urbani / Binding of serum 6 to linear peptides of protein N of SARS-CoV Urbani / Binding of serum 37 to linear peptides of protein N of SARS-CoV Urbani / Binding of serum 6 to linear peptide (PEPSCAN-ELISA) / Binding of serum 1a to looped/cyclic peptides of protein N of SARS-CoV Urbani / Binding of serum 1b to looped/cyclic peptides of protein N of SARS-CoV Urbani / Binding of serum 2 to looped/cyclic peptides of protein N of SARS-CoV Urbani / Binding of serum 6 to looped/cyclic peptides of protein N of SARS-CoV Urbani / Binding of serum 37 to looped/cyclic peptides of protein N of SARS-CoV Urbani / Binding of serum 62 to looped/cyclic peptides of protein N of SARS-CoV Urbani / Binding of serum London to looped/cyclic peptides of protein N of SARS-CoV Urbani / Binding of serum SARS-green to looped/cyclic peptides of protein N of SARS-CoV Urbani: unit not given here
[2] = system: control sera (pooled serum of ten healthy LUMC hospital workers; commercial negative donor pooled serum from the Dutch bloodbank); format: binding, human; parameters: Binding of Control serum LUMC to linear peptides / Binding of Control serum Blood-bank to linear peptides / Binding of Control serum LUMC to looped peptides / Binding of Control Serum Blood-Bank to Looped peptides / Binding of Control serum LUMC to linear peptides of the protein M of SARS-CoV Urbani / Binding of Control serum Blood-bank to linear peptides of the protein M of SARS-CoV Urbani / Binding of Control serum LUMC to looped peptides of the protein M of SARS-CoV Urbani / Binding of Control Serum Blood-Bank to Looped peptides of the protein M of SARS-CoV Urbani: unit not given here
[3] = system: rabbit serum obtained by immunizing a rabbit with the SARS-CoV strain Frankfurt 1; format: binding; parameters: Binding of a rabbit serum to linear peptides / Binding of a rabbit serum to looped peptides / Rabbit serum linear peptides / Rabbit serum looped peptides / Binding of a rabbit serum to linear peptides of protein N of SARS-CoV Urbani (Rabbit serum linear peptides) / Binding of a rabbit serum to looped/cyclic peptides of protein N of SARS-CoV Urbani (Rabbit serum looped peptides): unit not given here

In the case of TRSMWSFNPETNILL, the “Binding of serum 1a to linear peptides of protein M of SARS-CoV Urbani” value [1] was 0.8, the “Binding of serum 1a to looped/cyclic peptides of protein M of SARS-CoV Urbani” value [1] was 1.0 and the “Binding of serum 1b to linear peptides of protein M of SARS-CoV Urbani” value [1] was 0.7. For the same sequence, the “Binding of serum 1b to looped/cyclic peptides of protein M of SARS-CoV Urbani” value [1] was 0.4, the “Binding of serum 2 to linear peptides of protein M of SARS-CoV Urbani” value [1] was 0.5 and the “Binding of serum 2 to looped/cyclic peptides of protein M of SARS-CoV Urbani” value [1] was 0.8. The “Binding of serum 6 to linear peptides of protein M of SARS-CoV Urbani” value [1] was 0.5, the “Binding of serum 6 to looped/cyclic peptides of protein M of SARS-CoV Urbani” value [1] was 0.9 and the “Binding of serum 37 to linear peptides of protein M of SARS-CoV Urbani” value [1] was 0.5. The “Binding of serum 37 to looped/cyclic peptides of protein M of SARS-CoV Urbani” value [1] was 1.1, the “Binding of serum 62 to linear peptides of protein M of SARS-CoV Urbani” value [1] was 0.4 and the “Binding of serum 62 to looped/cyclic peptides of protein M of SARS-CoV Urbani” value [1] was 1.1. For the same sequence, the “Binding of serum London to linear peptides of protein M of SARS-CoV Urbani” value [1] was 0.3, the “Binding of serum London to looped/cyclic peptides of protein M of SARS-CoV Urbani” value [1] was 0.3 and the “Binding of serum SARS-green to linear peptides of protein M of SARS-CoV Urbani” value [1] was 0.5. The “Binding of serum SARS-green to looped/cyclic peptides of protein M of SARS-CoV Urbani” value [1] was 0.5, the “Binding of serum SARS-yellow to linear peptides of protein M of SARS-CoV Urbani” value [1] was 0.3 and the “Binding of serum SARS-yellow to looped/cyclic peptides of protein M of SARS-CoV Urbani” value [1] was 0.7. The “Binding of Control Serum Blood-Bank to Looped peptides of the protein M of SARS-CoV Urbani” value [2] was 0.9, the “Binding of Control serum Blood-bank to linear peptides of the protein M of SARS-CoV Urbani” value [2] was 0.7 and the “Binding of Control serum LUMC to linear peptides of the protein M of SARS-CoV Urbani” value [2] was 0.8. For the same sequence, the “Binding of Control serum LUMC to looped peptides of the protein M of SARS-CoV Urbani” value [2] was 0.9, the “Rabbit serum linear peptides” value [3] was 0.1 and the “Rabbit serum looped peptides” value [3] was 0.3.
TSCELYHYQECVRGT was tested, and the “Binding of serum 1a to linear peptides of protein X4 of SARS-CoV Urbani” value [1] was 0.7, the “Binding of serum 1a to looped/cyclic peptides of protein X4 of SARS-CoV Urbani” value [1] was 0.9 and the “Binding of serum 1b to linear peptides of protein X4 of SARS-CoV Urbani” value [1] was 0.6. The “Binding of serum 1b to looped/cyclic peptides of protein X4 of SARS-CoV Urbani” value [1] was 0.9, the “Binding of serum 2 to linear peptides of protein X4 of SARS-CoV Urbani” value [1] was 0.3 and the “Binding of serum 2 to looped/cyclic peptides of protein X4 of SARS-CoV Urbani” value [1] was 0.7. For the same sequence, the “Binding of serum 6 to linear peptides of protein X4 of SARS-CoV Urbani” value [1] was 0.7, the “Binding of serum 6 to looped/cyclic peptides of protein X4 of SARS-CoV Urbani” value [1] was 0.9 and the “Binding of serum 37 to linear peptides of protein X4 of SARS-CoV Urbani” value [1] was 0.7. The “Binding of serum 37 to looped/cyclic peptides of protein X4 of SARS-CoV Urbani” value [1] was 0.7, the “Binding of serum 62 to linear peptides of protein X4 of SARS-CoV Urbani” value [1] was 0.8 and the “Binding of serum 62 to looped/cyclic peptides of protein X4 of SARS-CoV Urbani” value [1] was 0.7. The “Binding of serum London to linear peptides of protein X4 of SARS-CoV Urbani” value [1] was 0.7, the “Binding of serum London to looped/cyclic peptides of protein X4 of SARS-CoV Urbani” value [1] was 0.4 and the “Binding of serum SARS-green to linear peptides of protein X4 of SARS-CoV Urbani” value [1] was 0.5. For the same sequence, the “Binding of serum SARS-green to looped/cyclic peptides of protein X4 of SARS-CoV Urbani” value [1] was 0.7, the “Binding of serum SARS-yellow to linear peptides of protein X4 of SARS-CoV Urbani” value [1] was 0.3 and the “Binding of serum SARS-yellow to looped/cyclic peptides of protein X4 of SARS-CoV Urbani” value [1] was 0.4. For the same sequence, the “Binding of Control Serum Blood-Bank to Looped peptides” value [2] was 0.8, the “Binding of Control serum Blood-bank to linear peptides” value [2] was 0.6 and the “Binding of Control serum LUMC to linear peptides” value [2] was 0.6. For the same sequence, the “Binding of Control serum LUMC to looped peptides” value [2] was 0.8, the “Rabbit serum linear peptides” value [3] was 0.4 and the “Rabbit serum looped peptides” value [3] was 0.2.
